The results in this text go back to patent US20190062272A1, “SMALL MOLECULES FOR IMMUNOGENIC TREATMENT OF CANCER” (Capten Therapeutics Inc., priority 2017, published 2019).

Holding throughout (format): cell-based
For one assay, the system named is CT26 Colon Cancer. The assay is described as follows: Cytotoxicity assay (Cell Titer GLO, 72 hours), CT26. To be noted: Mus musculus, CT26 Colon Cancer cells, cell viability by Cell Titer GLO, read-out: GC50 (the source's name). The protocol:
(§1) Cell lines used: CT26, B16F10 and NIH3T3
(§2) Concentration range of drug to be tested: 50 nM to 50 uM
(§3) Cells were plated in a 96 well plate and when they are about 50% confluent the drug was added in DMSO so that the final concentration of DMSO is 0.1% (v/v) of less and incubated for 72 hours. The cell viability is then determined using Cell Titer GLO.
For orientation: ATP-based viability assays read luminescence as a measure of living cells.

For the next assay, the system named is NIH 3T3 Non-tumor. The assay is described as follows: Cytotoxicity assay (Cell Titer GLO, 72 hours), NIH3T3. The note with it: Mus musculus, NIH 3T3 Non-tumor cells, cell viability by Cell Titer GLO, read-out: GC50 (the source's name). The protocol:
as §1, §2, §3

The test system of the next assay is B16F10 Melanoma. The assay is described as follows: Cytotoxicity assay (Cell Titer GLO, 72 hours), B16F10. The note with it: Mus musculus, B16-F10, B16F10 Melanoma cells, cell viability by Cell Titer GLO, read-out: GC50 (the source's name). The protocol:
as §1, §2, §3

With `C=CC(=O)NCCSc1cccc(O)c1O` [Compound 14, N-[2-(2,3-dihydroxyphenyl)sulfanylethyl]propenamide], the values for the IC50 in the assay on CT26 Colon Cancer, in the assay on NIH 3T3 Non-tumor and with B16F10 Melanoma were 9.9 µM, above 50 µM and 4.7 µM, respectively.

On to `C=CC(=O)NCCSc1cc(O)ccc1O` [Compound 12, N-[2-(2,5-dihydroxyphenyl)sulfanylethyl]propenamide], for which the IC50 was 14.2 µM in the assay with CT26 Colon Cancer, 3.3 µM in the assay with NIH 3T3 Non-tumor and above 50 µM in the assay on B16F10 Melanoma.

Turning to `C=CC(=O)NCCSc1ccc(O)c(O)c1` [Compound 10, N-[2-(3,4-dihydroxyphenyl)sulfanylethyl]propenamide], the IC50 with CT26 Colon Cancer, in the assay with NIH 3T3 Non-tumor and in the assay with B16F10 Melanoma was above 50 µM each time.
